Results published in patent publication US20110318798A1, “REMOVAL OF INHIBITORS OF MICROBIAL FE[…] INHIBITOR-CONTAINING COMPOSITIONS” (priority 2010, published 2011).

Legend:
Clostridium = settings: in the fermentation medium
[1] = tested on: butanol-producing Clostridium strain; format: cell-based

SMILES: O=CO [Formic acid]
- concentration at which it becomes inhibitory to growth of Clostridium and subsequent production of butanol (Clostridium): 0.3 to 0.4 g/L

SMILES: [Cl][Fe]([Cl])[Cl] [ferric chloride]
- transformation of un-fermentable hydrolysate into fermentable feedstock supporting microbial growth and butanol production ([1]; 2 g/L to 5 g/L metal salt, pH 9 to 10.5, 20° C. to 40° C.): successful
- butanol concentration after microbial fermentation for 72 hours ([1]; hydrolysate treated with 3 g/L […] or 2 g/l ferric chloride, pH 9.5, room temperature (about 20° C.), fermentation 10 ml, 30° C.): 7.69 g/L
